Assay results as given in ChEMBL document CHEMBL1130685, “Anthelmintic beta-hydroxyketoamides (BKAs)” (1998).

Assays:
Meriones unguiculatus [1] = experiment: Compound was evaluated for percentage clearance of Haemonchus contortus from jirds at the dose of 68 mg/kg; assay type: functional
Meriones unguiculatus [2] = experiment: Compound was evaluated for percentage clearance of Haemonchus contortus from jirds at dose of 25 mg/kg; assay type: functional

Compound | Parasite_Clearance (Meriones unguiculatus [1]) | Parasite_Clearance (Meriones unguiculatus [2])
Cc1cc(O)c(C(=O)Nc2ccc(Br)cc2)c(=O)o1 | 76% | –
O=C(Nc1ccc(Br)cc1)C1=C(O)[C@@H]2[C@H](C1=O)[C@@H]1C=C[C@H]2C1 | 98% | –
O=C(Nc1ccc(Br)cc1)c1c(O)nc2sc(C(F)(F)F)nn2c1=O | 82% | –
O=C(Nc1ccc(Br)cc1)C1=C(O)c2ccccc2C1=O | 100% | –
CN1C(=O)C(=C(O)Nc2ccc(Br)cc2)C(=O)N(C)C1=O | 100% | 81%
O=C(Nc1ccc(Br)cc1)c1c(O)c2ccccc2oc1=O | 89% | –
O=C(Nc1ccc(Br)cc1)c1c(O)c2cccnc2oc1=O | 100% | –
O=C(Nc1ccc(Br)cc1)C1=C(O)C2C3C=CC(O3)C2C1=O (stereo not given) | 92% | –
Cn1c(=O)c(C(=O)Nc2ccc(Br)cc2)c(O)c2ccccc21 | 81% | –
